Where only a bound is given, the exact number is not on record here.

In experiment [1] the test system is phospho-ERK in GP2D (KRAS-G12D) cells. Description: pERK In Cell Western (ICW) assay (Method B), GP2D. The experiment is classed as cell-based. As to the method:
pERK ICW is a high throughput screening assay to evaluate the cellular potency of mutant KRAS small molecule inhibitors. KRAS mutant cell lines AGS, GP2D (KRAS-G12D) as well as SW620 (KRAS-G12V) were purchased from ATCC and maintained respectively in RPMI/DMEM/RPMI medium supplemented with 10% fetal bovine serum.
Cells grown in exponential phase were trypsinized, resuspended in fresh media, and viable cells were counted using a cell counter with Trypan Blue (BioRad TC20). Cells were seeded into 384-well plate (Greiner 781091) at density of 5,000 cells/well for AGS and 10,000 cells/well for GP2D/SW620 and allowed to grow overnight in a 37° C. CO2 incubator. The next day, compounds were dispensed into wells with a ½ log, 9-point serial dilution using a Tecan D300e dispenser and incubated for 3 hours in a 37° C. CO2 incubator. Cells were then fixed with paraformaldehyde (Electron Microscopy Sciences, 15710, 4% final concentration) for 30 min, permeabilized with wash buffer (1×PBS+0.1% Triton X-100) for 30 min and blocked with Odyssey blocking buffer (Li—COR 927-70001) for 1 hour, all at room temperature (RT). Phospho-ERK antibody (CST 4370L) was diluted 1:500 in Odyssey T20 (PBS) antibody diluent (Li—COR 927-75001) and incubated with cells overnight at 4° C. The next day, plates were washed 5× with wash buffer, incubated with IRDye 800 CW, Goat anti-Rabbit secondary antibody (Li—COR 926-32211, 1:800) and DRAQ5 (CST 4084L, 1:5,000) diluted in Odyssey T20 (PBS) antibody diluent for 1 hour, washed 5×, and imaged on an Odyssey CLx imaging system.
For data analysis, signal intensities from 800 (phosphor-ERK) and 700 (DRAQ5) channels were extracted, and phospho-ERK signals were normalized to DRAQ5 signals for each well and percent of blank control values were computed. Data were then imported into Graphpad Prism to compute half-maximal inhibitory concentrations (IC50) using a 4-parameter variable slope model. Z-factor for each plate was computed from signals derived from wells treated with either DMSO or 5 μM of control compound. AGS pERK ICW (Method B) IC50 (uM) values of selected compounds are depicted in Table 2 with compounds having a value ≥0.001 uM to 0.01 uM as ++++; ≥0.01 uM to 0.1 uM as +++; ≥0.1 uM to 1 uM as ++; ≥1 uM to 10 uM as + and ≥10 uM as NA.

The target in experiment [2] is GST-tagged KRAS-G12V (2-169) (Homo sapiens, UniProt P01116, G12V). Description: Nucleotide exchange assay (NEA), SOS-mediated, HTRF, KRAS G12V. The settings on record: Table 4; IC50 extracted at 90 min; 80 nM SOS. The experiment is classed as biochemical. The gist of the method: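 GST-KRAS-G12V (2-169), 0.25 nM, pre-incubated 1 h at RT with compound, then SOS1cat (564-1049) 80 nM and GTP-DY-647P1 150 nM added in HEPES pH 7.3 buffer with MgCl2 and DTT. HTRF via anti-GST Tb cryptate read over 90 min; IC50 from 4-parameter fit at 90 min, blanked to no-SOS reactions.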
On the technique in general: TR-FRET usually uses a lanthanide donor and a delayed reading to cut background.

The test system of experiment [3] is phospho-ERK in SW620 (KRAS-G12V) cells. Description: pERK In Cell Western (ICW) assay (Method B), SW620. It counts as cell-based. The gist of the method:
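Cells were seeded at 5,000/well (AGS) or 10,000/well (GP2D, SW620), grown overnight, then treated 3 h at 37 °C with a ½-log 9-point compound dilution. Fixed cells were stained for phospho-ERK with DRAQ5 as DNA counterstain; pERK/DRAQ5 ratio as percent of blank control gave IC50 by 4-parameter fit.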

The target in experiment [4] is GST-tagged KRAS-G12D (2-169) (Homo sapiens, UniProt P01116, G12D). Description: Nucleotide exchange assay (NEA), SOS-mediated, HTRF, KRAS G12D. The settings on record: Table 4; IC50 extracted at 30 min; 20 nM SOScat; read-out: NEA G12D IC50. The experiment is classed as biochemical. The gist of the method:
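Compound preincubated 1 h at RT with 0.25 nM GST-KRAS-G12D (2-169) and anti-GST Tb donor, then 20 nM SOS1cat (564-1049) and 150 nM GTP-DY-647P1 added; pH 7.3 HEPES buffer with MgCl2 and DTT. HTRF monitored at RT; % inhibition versus DMSO and no-SOS blank, 4-parameter IC50 taken at 30 min.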

Where [5] appears, read: Homo sapiens, SW-620, 3 h, Table 4.

GST-tagged KRAS-G12V (2-169), sequence (P01116 2-169 isoform P01116-2 G12V): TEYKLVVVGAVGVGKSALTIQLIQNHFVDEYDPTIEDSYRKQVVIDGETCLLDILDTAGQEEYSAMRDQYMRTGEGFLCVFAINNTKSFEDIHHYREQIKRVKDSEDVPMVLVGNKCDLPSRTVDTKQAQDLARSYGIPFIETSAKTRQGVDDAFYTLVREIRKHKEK
GST-tagged KRAS-G12D (2-169), sequence (P01116 2-169 isoform P01116-2 G12D): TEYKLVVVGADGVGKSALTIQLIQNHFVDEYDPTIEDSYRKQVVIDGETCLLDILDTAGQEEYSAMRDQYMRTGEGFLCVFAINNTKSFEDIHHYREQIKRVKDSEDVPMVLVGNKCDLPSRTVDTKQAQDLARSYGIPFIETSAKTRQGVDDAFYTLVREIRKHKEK

The term IC50 denotes the concentration that gives 50% inhibition. For `CCN(c1nc(OCC23CCC(COC2)N3)nc(N2CC3(C2)SCc2sc(N)c(C#N)c23)n1)[C@H](C)c1cccnc1N` (stereo partly drawn) [Compound 204, 1-(4-((3-oxa-8-azabicyclo[3.2.1]octan-1-yl)methoxy)-6-(((R)-1-(2-aminopyridin-3-yl)ethyl)(ethyl)amino)-1,3,5-triazin-2-yl)-2′-amino-6′H-spiro[azetidine-3,4′-thieno[3,4-b]thiophene]-3′-carbonitrile], the IC50 in experiment [1] (GP2d, 3 h, Table 4) was 0.1 to 1 µM; in experiment [2], less than 0.01 µM; in experiment [3] (setting [5]), 0.01 to 0.1 µM; in experiment [4], 0.01 to 0.1 µM.
As for `N#Cc1c(N)sc2c1C1(CC2)CN(c2nc(OC[C@@]34CCCN3C[C@H](F)C4)nc(N3CCCCC3C#N)n2)C1` (stereo partly drawn) [Compound 44, 2-amino-1′-[4-(2-cyano-1-piperidyl)-6-[[(2R,8S)-2-fluoro-1,2,3,5,6,7-hexahydropyrrolizin-8-yl]methoxy]-1,3,5-triazin-2-yl]spiro[5,6-dihydrocyclopenta[b]thiophene-4,3′-azetidine]-3-carbonitrile], the IC50 was in the range of 0.1 to 1 µM in experiment [1] (GP2d, 3 h, Table 4); 0.01 to 0.1 µM in experiment [2]; 1 to 20 µM in experiment [3] (setting [5]); 0.01 to 0.1 µM in experiment [4].
`C[C@]1(CO)C[C@@H](O)CN1c1nc(OC[C@@]23CCCN2C[C@H](F)C3)nc(N2CC3(CCc4sc(N)c(C#N)c43)C2)n1` [Compound 58, 2-amino-1′-[4-[[(2R,8S)-2-fluoro-1,2,3,5,6,7-hexahydropyrrolizin-8-yl]methoxy]-6-[(2R,4R)-4-hydroxy-2-(hydroxymethyl)-2-methyl-pyrrolidin-1-yl]-1,3,5-triazin-2-yl]spiro[5,6-dihydrocyclopenta[b]thiophene-4,3′-azetidine]-3-carbonitrile]: the IC50 in experiment [1] (GP2d, 3 h, Table 4) was 1 to 20 µM; in experiment [2], 0.01 to 0.1 µM; in experiment [3] (setting [5]), 1 to 20 µM; in experiment [4] it was 0.01 to 0.1 µM.
For the compound `CCN(c1nc(OCC2(COC)CCCN2)nc(N2CC3(C2)SCc2sc(N)c(C#N)c23)n1)[C@H](C)c1cccnc1N` (stereo partly drawn) [Compound 202, 2-amino-1′-[4-[[(1R)-1-(2-amino-3-pyridyl)ethyl]-ethyl-amino]-6-[[2-(methoxymethyl)pyrrolidin-2-yl]methoxy]-1,3,5-triazin-2-yl]spiro[6H-thieno[3,4-b]thiophene-4,3′-azetidine]-3-carbonitrile], the IC50 was 0.01 to 0.1 µM in experiment [1] (GP2d, 3 h, Table 4); less than 0.01 µM in experiment [2]; 0.01 to 0.1 µM in experiment [3] (setting [5]); less than 0.01 µM in experiment [4].
For `CN(C)CC1(COc2nc(N3CC4(C3)SCc3sc(N)c(C#N)c34)nc(N3CCC[C@@](C)(O)C3)n2)CC1(F)F` (stereo partly drawn) [Compound 104, 2-amino-1′-[4-[[1-[(dimethylamino)methyl]-2,2-difluoro-cyclopropyl]methoxy]-6-[(3R)-3-hydroxy-3-methyl-1-piperidyl]-1,3,5-triazin-2-yl]spiro[6H-thieno[2,3-c]thiophene-4,3′-azetidine]-3-carbonitrile], the IC50 in experiment [1] (GP2d, 3 h, Table 4) is less than 0.01 µM; in experiment [2], less than 0.01 µM; in experiment [3] (setting [5]), 0.01 to 0.1 µM; in experiment [4], less than 0.01 µM.
Consider `CC(c1nonc1N)N(C)c1nc(OC[C@@]23CCCN2C[C@H](F)C3)nc(N2CC3(CCc4sc(N)c(C#N)c43)C2)n1` (stereo partly drawn) [Compound 156, 2′-amino-1-(4-((1-(4-amino-1,2,5-oxadiazol-3-yl)ethyl)(methyl)amino)-6-(((2R,7aS)-2-fluorotetrahydro-1H-pyrrolizin-7a(5H)-yl)methoxy)-1,3,5-triazin-2-yl)-5′,6′-dihydrospiro[azetidine-3,4′-cyclopenta[b]thiophene]-3′-carbonitrile], for which the IC50 is 1 to 20 µM in experiment [1] (GP2d, 3 h, Table 4); less than 0.01 µM in experiment [2]; 0.01 to 0.1 µM in experiment [3] (setting [5]); 0.1 to 1 µM in experiment [4].
For the compound `N#Cc1c(N)sc2c1C1(CC2)CN(c2nc(NCc3ccn[nH]3)nc(OC[C@@]34CCCN3C[C@H](F)C4)n2)C1` [Compound 84, 2-amino-1′-[4-[[(2R,8S)-2-fluoro-1,2,3,5,6,7-hexahydropyrrolizin-8-yl]methoxy]-6-(1H-pyrazol-5-ylmethylamino)-1,3,5-triazin-2-yl]spiro[5,6-dihydrocyclopenta[b]thiophene-4,3′-azetidine]-3-carbonitrile], the IC50 in experiment [1] (GP2d, 3 h, Table 4) is 1 to 20 µM; in experiment [2], 0.1 to 1 µM; in experiment [3] (setting [5]), not below 20 µM; in experiment [4], 0.1 to 1 µM.
`CC(c1cc(Cl)nnc1N)N(C)c1nc(OC[C@@]23CCCN2C[C@H](F)C3)nc(N2CC3(CCc4sc(N)c(C#N)c43)C2)n1` (stereo partly drawn) [Compound 132, 2′-amino-1-(4-((1-(3-amino-6-chloropyridazin-4-yl)ethyl)(methyl)amino)-6-(((2R,7aS)-2-fluorotetrahydro-1H-pyrrolizin-7a(5H)-yl)methoxy)-1,3,5-triazin-2-yl)-5′,6′-dihydrospiro[azetidine-3,4′-cyclopenta[b]thiophene]-3′-carbonitrile]: the IC50 in experiment [1] (GP2d, 3 h, Table 4) is 1 to 20 µM; in experiment [2], less than 0.01 µM; in experiment [3] (setting [5]), 0.1 to 1 µM; in experiment [4], 0.01 to 0.1 µM.
Regarding `CC(c1nccnc1N)N(CCO)c1nc(OC[C@@]23CCCN2C[C@H](F)C3)nc(N2CC3(CCc4sc(N)c(C#N)c43)C2)n1` (stereo partly drawn) [Compound 124, 2-amino-1′-[4-[1-(3-aminopyrazin-2-yl)ethyl-(2-hydroxyethyl)amino]-6-[[(2R,8S)-2-fluoro-1,2,3,5,6,7-hexahydropyrrolizin-8-yl]methoxy]-1,3,5-triazin-2-yl]spiro[5,6-dihydrocyclopenta[b]thiophene-4,3′-azetidine]-3-carbonitrile], the IC50 in experiment [1] (GP2d, 3 h, Table 4) is 0.1 to 1 µM; in experiment [2], less than 0.01 µM; in experiment [3] (setting [5]), 0.01 to 0.1 µM; in experiment [4], less than 0.01 µM.
Turning to `C[C@H](c1cc(N)ncc1F)N(C)c1nc(OC[C@@]23CCCN2C[C@H](F)C3)nc(N2CC3(CCc4sc(N)c(C#N)c43)C2)n1` [Compound 142, 2-amino-1′-[4-[[(1R)-1-(2-amino-5-fluoro-4-pyridyl)ethyl]-methyl-amino]-6-[[(2R,8S)-2-fluoro-1,2,3,5,6,7-hexahydropyrrolizin-8-yl]methoxy]-1,3,5-triazin-2-yl]spiro[5,6-dihydrocyclopenta[b]thiophene-4,3′-azetidine]-3-carbonitrile], the IC50 in experiment [1] (Table 4, 3 hours) is 0.01 to 0.1 µM; in experiment [2], less than 0.01 µM; in experiment [3] (Table 4, 3 hours), 0.01 to 0.1 µM; in experiment [4], less than 0.01 µM.
In the case of `CC(C#N)N(CC(F)F)c1nc(OC[C@@]23CCCN2C[C@H](F)C3)nc(N2CC3(C2)SCc2sc(N)c(C#N)c23)n1` (stereo partly drawn) [Compound 258, 2-amino-1′-[4-[1-cyanoethyl(2,2-difluoroethyl)amino]-6-[[(2R,8S)-2-fluoro-1,2,3,5,6,7-hexahydropyrrolizin-8-yl]methoxy]-1,3,5-triazin-2-yl]spiro[6H-thieno[2,3-c]thiophene-4,3′-azetidine]-3-carbonitrile], the IC50 was 0.01 to 0.1 µM in experiment [1] (GP2d, 3 h, Table 4); less than 0.01 µM in experiment [2]; 0.01 to 0.1 µM in experiment [3] (setting [5]); less than 0.01 µM in experiment [4].

The values above are taken from US12421254B2, “KRAS modulators and uses thereof” (Quanta Therapeutics, Inc., priority 2023, dated 2025).
